Measurements as given in patent US9498466B2, “Pyrrole inhibitors of S-nitrosoglutathione reductase as therapeutic agents” (Nivalis Therapeutics, Inc., priority 2008, dated 2016).

Key:
[1] = test system: OVA sensitized mice; assay: GSNOR inhibition assay in an in vivo animal model: OVA mouse model of asthma, methacholine challenge, Penh; details: 1 mg/kg, 10 mg/kg or 30 mg/kg intravenously at 24 hours prior
Procedure: In an effort to determine if similar observations would manifest if GSNOR were inhibited pharmacologically by a GSNOR inhibitor, an OVA mouse model (i.e., the wild-type model of Que et al.) was used. In this study, OVA sensitized mice were administered 1 mg/kg, 10 mg/kg or 30 mg/kg of Compound 1 intravenously at 24 hours prior to being placed in a whole body plethysmograph (Buxco Research Systems, Wilmington, N.C.) and provided with fresh air.
Subject animals were then challenged with an aerosol of increasing dosages of the bronchoconstrictive agent methacholine, a pharmacologic agent commonly used in determining the degree of bronchial hyper-reactivity in experimental subjects. In this study mice were exposed to an increasing concentration of methacholine, each dose being presented for 3 minutes, during which time readings were taken. Doses of methacholine were 0 mg/ml, 5 mg/ml, 20 mg/ml, and 50 mg/ml. The degree of bronchial hyper-reactivity was measured as the ‘Enhanced Pause’ (Penh), a unit-less index of airway hyper-reactivity (Dohi et al., Lab Invest. 79(12):1559-1571, 1999).

[2] = test system: mouse model of ovalbumin (OVA)-induced asthma; assay: Experimental asthma model: pulmonary function testing (Penh) after MCh challenge; type: in vivo; details: read-out: area under the curve (AUC) for Penh response reported as percent of vehicle control
Procedure: A mouse model of ovalbumin (OVA)-induced asthma was used to screen GSNOR inhibitors for efficacy against methacholine (MCh)-induced bronchoconstriction/airway hyper-reactivity. […] Efficacy of GSNOR inhibitors were assessed using a prophylactic protocol in which GSNOR inhibitors were administered prior to challenge with MCh. Bronchoconstriction in response to challenge with increasing doses of MCh was assessed using whole body plethysmography (Penh; Buxco). […] The effect of GSNOR inhibitors were compared to vehicles and to Combivent (inhaled; IH) as the positive control. […]
In vivo airway responsiveness to methacholine was measured 24 h after the last OVA challenge in conscious, freely moving, spontaneously breathing mice with whole body plethysmography using a Buxco chamber (Wilmington, N.C.). […] The degree of bronchoconstriction was expressed as enhanced pause (Penh), a calculated dimensionless value, which correlates with the measurement of airway resistance, impedance, and intrapleural pressure in the same mouse. Penh readings were taken and averaged for 4 min. after each nebulization challenge. Penh was calculated as follows: Penh enh=[(Te/Tr−1)×(PEF/PIF)], where Te is expiration time, Tr is relaxation time, PEF is peak expiratory flow, and PIF is peak inspiratory flow×0.67 coefficient. […]

Structure (SMILES) | broncho-constrictive responses to methacholine (Penh) compared with vehicle-only dosed animals [1] | response vs control in vivo at 0.1 mg/kg ([2]; single IV dose of 0.1 mg/kg at 24 h prior to MCh) | response vs control in vivo at 1 mg/kg ([2]; single IV dose of 1 mg/kg at 24 h prior to MCh)
Cc1cc(C(N)=O)ccc1-n1c(CCC(=O)O)ccc1-c1ccc(-n2ccnc2)cc1 [Compound 1, 3-(5-(4-(1H-imidazol-1-yl)phenyl)-1-(4-carbamoyl-2-methylphenyl)-1H-pyrrol-2-yl)propanoic acid] | lower broncho-constrictive responses |  | 
Cc1cc(C(N)=O)ccc1-n1c(CCC(=O)O)ccc1-c1ccc(Br)cc1 [Compound 7, 3-(5-(4-bromophenyl)-1-(4-carbamoyl-2-methylphenyl)-1H-pyrrol-2-yl)propanoic acid] |  | 56.1 ± 2.2% | 50.4 ± 3.7%
